Results published in US11384062B2 (CombiPhos Catalysts, Inc., priority 2017, dated 2022).

Key:
NCI-H522 = settings: 10 μM single dose; Non-Small Cell Lung Cancer NCI-H522
Excerpt: (§1) The test compounds were screened for anticancer activity at the Development Therapeutic Program (DTP), National Cancer Institute (NCI), USA, against a full NCI 59 cell line panel (six cell lines of leukemia, nine cell lines of lung cancer, seven cell lines of colon cancer, six cell lines of CNS cancer, nine cell lines of melanoma, seven cell lines of ovarian cancer, seven cell lines of renal cancer, two cell lines of prostate cancer, and six cell lines of breast cancer) representing nine human systems in total as leukemia, melanoma, and cancers of the lungs, colon, brain, breast, ovary, kidney, and prostate, according to the applied protocol. A primary in vitro one dose anticancer assay was performed at a single dose (10 μM) against the full NCI 59 cell line panel. The one dose data was reported as a mean graph of the percent growth of treated cells. The number reported for the single dose assay was growth relative to the no drug control and relative to the initial number of cells at time 0. […] A value of −40 means 40% lethality. A value of −100 means all cells are dead.

EKVX = settings: 10 μM single dose; Non-Small Cell Lung Cancer EKVX
Excerpt: as §1

SW-620 = settings: 10 μM single dose; Colon Cancer SW-620
Excerpt: as §1

UACC-62 = settings: 10 μM single dose; Melanoma UACC-62
Excerpt: as §1

SNB-75 = settings: 10 μM single dose; CNS Cancer SNB-75
Excerpt: as §1

786-0 = settings: 10 μM single dose; Renal Cancer 786-0
Excerpt: as §1

DU-145 = settings: 10 μM single dose; Prostate Cancer DU-145
Excerpt: as §1

A498 = settings: 10 μM single dose; Renal Cancer A498
Excerpt: as §1

NCI/ADR-RES = settings: 10 μM single dose; Ovarian Cancer NCI/ADR-RES
Excerpt: as §1

HT29 = settings: 10 μM single dose; Colon Cancer HT29
Excerpt: as §1

RPMI-8226 = settings: 10 μM single dose; Leukemia RPMI-8226
Excerpt: as §1

MCF7 = settings: 10 μM single dose; Breast Cancer MCF7
Excerpt: as §1

SR = settings: 10 μM single dose; Leukemia SR
Excerpt: as §1

IGROV1 = settings: 10 μM single dose; Ovarian Cancer IGROV1
Excerpt: as §1

OVCAR-8 = settings: 10 μM single dose; Ovarian Cancer OVCAR-8
Excerpt: as §1

TK-10 = settings: 10 μM single dose; Renal Cancer TK-10
Excerpt: as §1

NCI-H226 = settings: 10 μM single dose; Non-Small Cell Lung Cancer NCI-H226
Excerpt: as §1

SN12C = settings: 10 μM single dose; Renal Cancer SN12C
Excerpt: as §1

BT-549 = settings: 10 μM single dose; Breast Cancer BT-549
Excerpt: as §1

NCI-H460 = settings: 10 μM single dose; Non-Small Cell Lung Cancer NCI-H460
Excerpt: as §1

HL-60(TB) = settings: 10 μM single dose; Leukemia HL-60(TB)
HCT-15 = settings: 10 μM single dose; Colon Cancer HCT-15
Excerpt: as §1

HOP-62 = settings: 10 μM single dose; Non-Small Cell Lung Cancer HOP-62
Excerpt: as §1

Row | SMILES | Growth Percentage (NCI-H522) [%] | Growth Percentage (EKVX) [%] | Growth Percentage (SW-620) [%] | Growth Percentage (UACC-62) [%] | Growth Percentage (SNB-75) [%] | Growth Percentage (786-0) [%] | Growth Percentage (DU-145) [%] | Growth Percentage (A498) [%] | Growth Percentage (NCI/ADR-RES) [%] | Growth Percentage (HT29) [%] | Growth Percentage (RPMI-8226) [%] | Growth Percentage (MCF7) [%] | Growth Percentage (SR) [%] | Growth Percentage (IGROV1) [%] | Growth Percentage (OVCAR-8) [%] | Growth Percentage (TK-10) [%] | Growth Percentage (NCI-H226) [%] | Growth Percentage (SN12C) [%] | Growth Percentage (BT-549) [%] | Growth Percentage (NCI-H460) [%] | also measured
1 | [2H]c1c([2H])c(C2([2H])C([2H])NC([2H])C([2H])C2[2H])c([2H])c([2H])c1-n1cc2cccc(C(N)=O)c2n1 (stereo not shown) [Example 4, 2-(4-(piperidin-3-yl-2,3,4,5,6-d5)phenyl-2,3,5,6-d4)-2H-indazole-7-carboxamide] | 87.37 | 88.21 | 72.23 | 85.29 | 70.09 | 92.79 | 89.54 | 89.03 | 84.74 | 77.66 | 90.85 | 64.30 | 47.47 | 73.75 | 82.86 | 96.15 | 91.01 | 89.59 | 99.58 | 76.94 | Growth Percentage (HL-60(TB)): 77.68%
2 | [2H]c1c([2H])c(-n2nc3c(C(N)=O)cccc3c2[2H])c([2H])c([2H])c1C1CCCNC1 (racemic) [Example 11, 2-(4-(piperidin-3-yl)phenyl-2,3,5,6-d4)-2H-indazole-3-d-7-carboxamide] | 89.79 | 91.65 | 72.01 | 76.75 | 76.35 | 97.43 | 87.51 | 83.22 | 89.85 | 87.71 | 78.32 | 69.21 | 37.42 | 74.29 | 84.66 | 102.70 | 92.42 | 81.90 | 91.44 | 80.76 | Growth Percentage (HCT-15): 85.76%; Growth Percentage (HOP-62): 94.55%; Growth Percentage (HL-60(TB)): 69.13%
3 | [2H]C1([2H])NC([2H])([2H])C([2H])(c2ccc(-n3cc4cccc(C(N)=O)c4n3)cc2)C([2H])([2H])C1([2H])[2H] (racemic) [Example 3, 2-(4-(piperidin-3-yl-2,2,3,4,4,5,5,6,6-d9)phenyl)-2H-indazole-7-carboxamide] | 83.10 | 100.49 | 84.69 | 84.84 | 76.50 | 103.31 | 97.89 | 90.94 | 97.76 | 93.28 | 87.86 | 75.22 | 59.44 | 83.23 | 81.93 | 98.41 | 93.61 | 93.25 | 113.02 | 86.91 | Growth Percentage (HCT-15): 100.98%; Growth Percentage (HOP-62): 93.86%; Growth Percentage (HL-60(TB)): 89.31%
